Entries after “also recorded” stand apart in the source; their conditions may differ. Where a name gives a salt, the structure may show the parent alone. Read-outs that look alike come from different tables or passages of the source.
Tests used:
PCP RECEPTOR = assay: PCP receptor binding assay ([3H]-TCP displacement, brain membranes); parameters: species or system guinea-pig (male Hartley); details: for IC50: read-out: PCP RECEPTOR IC50
Procedure: (§1) This example illustrates testing of compounds in receptor binding assays.
(§2) Frozen brains from male Hartley guinea-pigs were obtained from Pel-Freeze (Rogers, Arkansas).
(§3) The brains plus cerebella were homogenized in 10 volumes (v/w) of 0.1M, pH 7.4, ice-cold Tris-HCl buffer with a Brinkmann polytron at setting 4 for 20 seconds. The homogenates were centrifuged at 20,000×g for 20 minutes at 4° C. The pellets were suspended in 10 volumes of ice-cold water and, after sitting on ice for 10 minutes, were centrifuged 30 minutes at 20,000×g at 4° C. The resulting pellets were resuspended in the above Tris buffer in ratio 1:100 (w/v) for σ receptor assays or in 5 mM Tris-HCl having pH 7.4, for PCP receptor assays. The final suspension was homogenized with a dounce glass-glass tissue grinder Wheaton "200", at small clearance (B), with three strokes before use. Two milliter aliquots of the brain membrane preparation, containing 1.7 mg of protein, were incubated in quadruplicate for one hour at 23° C. with competing mixture of ligand and radioligand. For σ receptors, [^3 H]-d-SKF-10,047, 2 nM was used. For PCP receptors, [^3 H] TCP [^3 H]-1-[1-(2-thienyl)cyclohexyl]piperidine), 1 nM was used. The nonspecific bindings were defined by 0.1 mM d-SKF-10,047 and 0.1 mM phencyclidine respectively for σ and PCP receptors. After incubation, free ligand was separated from bound ligand by rapid filtration through Whatman GF/C filters. The filters had been soaked before use in isoamyl alcohol-saturated water to prevent nonspecific [^3 H]-d-SKF-10,047 binding to the filter. In the PCP receptor assay, the filter was soaked in 0.5% polyethylenimine to reduce the filter binding of [^3 H]-TCP. After filtration, the trapped tissue was washed three times with 4 ml aliquots of 0.1 M ice-cold Tris buffer at pH 7.4 for σ receptors and 5 mM, ice-cold Tris buffer pH 7.4 for PCP receptors. The filters were transferred to 5 ml of liquid scintillation fluid and the retained radioactivity was measured by liquid scintillation spectrometry.
Programs in Biomed. 17:107 (1983)].

SIGMA RECEPTOR = biological target: T1, SIGMA RECEPTOR (Cavia porcellus, UniProt Q60492); assay: Sigma receptor binding assay ([3H]-d-SKF-10,047 displacement, brain membranes); parameters: species or system guinea-pig (male Hartley)
T1 construct: Two milliter aliquots of the brain membrane preparation, containing 1.7 mg of protein; tissue Pel-Freeze (Rogers, Arkansas); host or cells: guinea-pig brains plus cerebella, membranes
Procedure: as §1, §2, §3

[1] = Table 2, aryl ring substituents
[2] = Table 1, slope of dose response curve
[3] = Table 3, cycloalkyl ring size, read-out: SIGMA RECEPTOR IC50
[4] = Table 1, mean ± error (n), read-out: SIGMA RECEPTOR IC50
[5] = Table 2, aryl ring substituents, read-out: SIGMA RECEPTOR IC50
[6] = SIGMA RECEPTOR IC50, Table 1, mean ± error (n)

T1 sequence (Q60492 whole entry): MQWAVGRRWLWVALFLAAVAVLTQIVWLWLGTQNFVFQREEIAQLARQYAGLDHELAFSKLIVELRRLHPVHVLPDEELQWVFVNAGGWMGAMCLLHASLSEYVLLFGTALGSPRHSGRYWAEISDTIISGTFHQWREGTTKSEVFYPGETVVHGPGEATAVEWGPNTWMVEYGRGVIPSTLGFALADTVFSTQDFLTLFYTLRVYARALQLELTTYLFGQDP

Row | SMILES | potency at PCP receptors (in words) (PCP RECEPTOR) | IC50 (PCP RECEPTOR; Table 1, mean ± error (n)) [nM] | IC50 (PCP RECEPTOR; [1]) [nM] | potency at σ receptors (in words) (SIGMA RECEPTOR) | SIGMA RECEPTOR SLOPE (SIGMA RECEPTOR; [2]) | SIGMA RECEPTOR SLOPE (SIGMA RECEPTOR; Table 2) | IC50 (SIGMA RECEPTOR; [5]) [nM] | selectivity for σ receptors (in words) (SIGMA RECEPTOR) | also measured
1 | c1ccc(C2(CN3CCCCC3)CCCCC2)cc1 [Compound 2] | reduced the potency in the PCP receptor assay | 1830 | 1830 | increased the potency of the compound in the σ receptor assay | 0.66 ± 0.1 | 0.66 ± 0.1 | – | – | IC50 (PCP RECEPTOR; Table 3, cycloalkyl ring size): 1830 nM; decreased potency for PCP receptors (PCP RECEPTOR; relative to PCP (1)): approximately 40 times; SIGMA RECEPTOR SLOPE (SIGMA RECEPTOR; Table 3): 0.66 ± 0.01; IC50 (SIGMA RECEPTOR; [3]): 104 nM; increased potency for σ receptors (SIGMA RECEPTOR; relative to PCP (1)): about 80 times
2 | c1ccc(C2(CN3CCCC3)CCCCC2)cc1 [Compound 6] | already inactive at PCP receptors | 1270 | – | increased potency for σ receptors | 0.88 ± 0.07 | 0.88 ± 0.07 | 4750 | – | IC50 (SIGMA RECEPTOR; [4]): 4740 nM
3 | c1ccc(C2(CCN3CCCC3)CCCCC2)cc1 [Compound 7] | decreased the potency in the PCP receptor assay | 1720 | – | – | 1.22 ± 0.03 | – | – | – | IC50 (SIGMA RECEPTOR; [4]): 141 nM; increased potency for σ receptors (SIGMA RECEPTOR; relative to PCPY (5)): approximately 30 fold
4 | Cc1ccc(C2(CN3CCCCC3)CCCCC2)cc1 [Compound 23] | – | – | > 25000 | slightly lower σ receptor potencies | – | 0.69 ± 0.01 | 223 | substantially increases selectivity for σ receptors | –
5 | CN(C)C1(c2ccccc2)CCCCC1 [Compound 17, N,N-dimethyl-1-phenylcyclohexylamine, reference compound] | – | 242 ± 8 | – | – | 0.53 ± 0.05 | – | – | – | IC50 (SIGMA RECEPTOR; [6]): 1950 nM
6 | COc1cccc(C2(CN3CCCCC3)CCCCC2)c1 [Compound 26] | – | – | > 25000 | slightly lower σ receptor potencies | – | 0.74 ± 0.07 | 326 | substantially increases selectivity for σ receptors | –
7 | COc1ccc(C2(CN3CCCCC3)CCCCC2)cc1OC [Compound 28] | – | – | > 25000 | slightly lower σ receptor potencies; also recorded: poor to reasonable potency at σ sites | – | 0.56 ± 0.03 | 387 ± 18 | substantially increases selectivity for σ receptors; also recorded: high selectivity for σ receptors | –
8 | O=C(OCCN1CCCC1)C1(c2ccccc2)CC1 [Compound 47, 2-(1-Pyrrolidino)ethyl 1-Phenylcyclopropane-1-carboxylate hydrochloride] | – | – | – | – | – | – | – | – | IC50 (PCP RECEPTOR; Table 3, cycloalkyl ring size): > 25000 nM; SIGMA RECEPTOR SLOPE (SIGMA RECEPTOR; Table 3): 0.78 ± 0.09; IC50 (SIGMA RECEPTOR; [3]): 1460 nM
9 | CC[N+](C)(CC)CCOC(=O)C1(c2ccccc2)CCCCC1 [Compound 16] | inactive in the PCP assay; also recorded: did not increase potency for PCP receptors | > 25000 | – | σ receptor potency increased; also recorded: effectively reversed the potency for σ receptors | 0.86 ± 0.07 | – | – | – | IC50 (SIGMA RECEPTOR; [4]): 2230 nM
10 | Oc1ccc(C2(CN3CCCC3)CCCCC2)cc1 [Compound 30] | inactive at PCP receptor sites | – | > 25000 | did not improve potency as much as the 3-hydroxy derivative | – | 0.78 ± 0.02 | 1740 | considerably improved selectivity for σ receptors | –
11 | c1ccc(C2(N3CCOCC3)CCCCC2)cc1 [Compound 10, 4-(1-phenylcyclohexyl)morpholine, reference compound] | – | 633 ± 71 | – | – | 0.47 ± 0.02 | – | – | – | IC50 (SIGMA RECEPTOR; [6]): 2530 nM
12 | CN(C)CC1(c2cccc(O)c2)CCCCC1 [Compound 40] | – | – | > 25000 | – | – | 0.61 ± 0.01 | 10100 | – | –
13 | C[N+]1(CCOC(=O)C2(c3ccccc3)CCCCC2)CCCCC1 [Compound 4] | reduced the potency in the PCP receptor assay; also recorded: drastically reduced potency for both σ and PCP receptors; also recorded: inactive in the PCP assay; also recorded: did not increase potency for PCP receptors | > 25000 | – | – | – | – | – | – | IC50 (SIGMA RECEPTOR; [4]): > 25000 nM
14 | Oc1cccc(C2(CN3CCCCC3)CCCCC2)c1 [Compound 21] | – | – | > 25000 | diminished binding to σ receptors | – | – | > 25000 | – | –
15 | Clc1cccc(C2(CN3CCCCC3)CCCCC2)c1 [Compound 25] | showed some potency at PCP receptors | – | 1830 | most potent at σ receptors | – | 0.69 ± 0.05 | – | least specific | IC50 (SIGMA RECEPTOR; read-out: IC50 at σ receptors): 71 nM
